# Experimental data published in US6861434B2, “Antipsychotic aminomethyl derivatives of 1,3,7,8-tetrahydro-6,9-dioxa-1,3-diaza-cyclopenta[a]-naphthalen-2-one” (Wyeth, priority 2001, dated 2005).
# Counter-ions that a name gives are not always drawn.
# Biological target: T1, dopamine D2 receptor (Rattus norvegicus, UniProt P61169)
# T1 construct: from tissue; host or cells: rat striatal brain tissue homogenate
# Test: Dopamine D2 receptor affinity, 3H-quinpirole binding in homogenized rat striatal brain tissue
# Protocol: Affinity for the dopamine D2 receptor was established by a modification of the standard experimental test procedure of Seemen and Schaus, European Journal of Pharmacology 203: 105-109, 1991, wherein homogenized rat striatal brain tissue is incubated with ^3H-quinpirole and various concentrations of test compound, filtered and washed and counted in a Betaplate scintillation counter.
# T1 sequence (P61169 whole entry): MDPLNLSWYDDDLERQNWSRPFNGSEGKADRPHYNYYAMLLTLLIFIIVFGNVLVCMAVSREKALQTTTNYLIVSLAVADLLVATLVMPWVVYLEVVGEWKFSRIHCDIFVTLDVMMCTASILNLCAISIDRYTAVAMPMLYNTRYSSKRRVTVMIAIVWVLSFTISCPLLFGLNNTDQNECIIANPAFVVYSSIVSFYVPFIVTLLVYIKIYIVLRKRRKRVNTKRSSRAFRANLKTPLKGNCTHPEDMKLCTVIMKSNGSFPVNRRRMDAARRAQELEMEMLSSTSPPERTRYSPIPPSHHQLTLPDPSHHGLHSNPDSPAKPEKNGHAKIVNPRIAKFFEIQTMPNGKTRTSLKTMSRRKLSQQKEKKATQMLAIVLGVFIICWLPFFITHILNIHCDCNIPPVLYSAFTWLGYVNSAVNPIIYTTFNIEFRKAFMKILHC
row,Structure (SMILES),IC50
1,"O=c1[nH]c2ccc3c(c2[nH]1)OC(CNCc1ccccc1)CO3 (stereo not drawn) [Example 1, 8-(Benzylamino-methyl)-1,3,7,8-tetrahydro-6,9-dioxa-1,3-diaza-cyclopenta[a]naphthalen-2-one]",0.39 nM
2,"O=c1[nH]c2ccc3c(c2[nH]1)OC(CNCCCCc1ccccc1)CO3 (stereo not drawn) [Example 2, 8-[(4-Phenyl-butylamino)-methyl]-1,3,7,8-tetrahydro-6,9-dioxa-1,3-diaza-cyclopenta[a]naphthalen-2-one]",0.18 nM
3,"O=c1[nH]c2ccc3c(c2[nH]1)OC(CN1CC=C(c2ccccc2)CC1)CO3 (stereo not drawn) [Example 3, 8-(4-Phenyl-5,6-dihydro-2H-pyridin-1-ylmethyl)-1,3,7,8-tetrahydro-6,9-dioxa-1,3-diaza-cyclopenta[a]naphthalen-2-one]",1.3 nM
4,"O=c1[nH]c2ccc3c(c2[nH]1)OC(CNCC12CC4CC(CC(C4)C1)C2)CO3 (stereo not drawn) [Example 4, 8-{[(Adamantan-1-ylmethyl)-amino]-methyl}-1,3,7,8-tetrahydro-6,9-dioxa-1,3-diaza-cyclopenta[a]naphthalen-2-one]",0.84 nM
5,O=c1[nH]c2ccc3c(c2[nH]1)O[C@@H](CN1CCc2ccccc2C1)CO3 [Example 5],6.78 nM
6,"O=C(c1ccc(F)cc1)C1CCN(C[C@H]2COc3ccc4[nH]c(=O)[nH]c4c3O2)CC1 [Example 6, 8-[4-(4-Fluoro-benzoyl)-piperidin-1-ylmethyl]-1,3,7,8-tetrahydro-6,9-dioxa-1,3-diaza-cyclopenta[a]naphthalen-2-one]",1.43 nM
7,"CC(=O)Nc1cccc(OCCCNCC2COc3ccc4[nH]c(=O)[nH]c4c3O2)c1 (stereo not drawn) [Example 7, N-(3-{3-[(2-Oxo-2,3,7,8-tetrahydro-1H-6,9-dioxa-1,3-diaza-cyclopenta[a]naphthalen-8-ylmethyl)-amino]propoxy}-phenyl)-acetamide]",0.55 nM
8,"O=c1[nH]c2ccc3c(c2[nH]1)OC(CNCCCc1c[nH]c2ccccc12)CO3 (stereo not drawn) [Example 8, 8-{[3-(1H-indol-3-yl)-propylamino]-methyl}-1,3,7,8-tetrahydro-6,9-dioxa-1,3-diaza-cyclopenta[a]naphthalen-2-one]",0.02 nM

# System: not given
# Test: not given
row,Structure (SMILES),melting point
1,"O=c1[nH]c2ccc3c(c2[nH]1)OC(CNCc1ccccc1)CO3 (stereo not drawn) (as salt: fumarate) (hydrate or solvate) [Example 1, 8-(Benzylamino-methyl)-1,3,7,8-tetrahydro-6,9-dioxa-1,3-diaza-cyclopenta[a]naphthalen-2-one]",149 to 151 °C
2,"O=c1[nH]c2ccc3c(c2[nH]1)OC(CNCCCCc1ccccc1)CO3 (stereo not drawn) (as salt: fumarate) (hydrate or solvate) [Example 2, 8-[(4-Phenyl-butylamino)-methyl]-1,3,7,8-tetrahydro-6,9-dioxa-1,3-diaza-cyclopenta[a]naphthalen-2-one]",224 to 226 °C
3,"O=c1[nH]c2ccc3c(c2[nH]1)OC(CN1CC=C(c2ccccc2)CC1)CO3 (stereo not drawn) (as salt: fumarate) (hydrate or solvate) [Example 3, 8-(4-Phenyl-5,6-dihydro-2H-pyridin-1-ylmethyl)-1,3,7,8-tetrahydro-6,9-dioxa-1,3-diaza-cyclopenta[a]naphthalen-2-one]",205 to 209 °C
4,"CC(=O)Nc1cccc(OCCCNCC2COc3ccc4[nH]c(=O)[nH]c4c3O2)c1 (stereo not drawn) (as salt: fumarate) (hydrate or solvate) [Example 7, N-(3-{3-[(2-Oxo-2,3,7,8-tetrahydro-1H-6,9-dioxa-1,3-diaza-cyclopenta[a]naphthalen-8-ylmethyl)-amino]propoxy}-phenyl)-acetamide]",125 °C (dec.)
5,"O=c1[nH]c2ccc3c(c2[nH]1)OC(CNCC12CC4CC(CC(C4)C1)C2)CO3 (stereo not drawn) (as salt: hydrochloride) (hydrate or solvate) [Example 4, 8-{[(Adamantan-1-ylmethyl)-amino]-methyl}-1,3,7,8-tetrahydro-6,9-dioxa-1,3-diaza-cyclopenta[a]naphthalen-2-one]",> 250 °C
6,O=c1[nH]c2ccc3c(c2[nH]1)OC(CN1CCC2C=CC=CC2C1)CO3 (stereo not drawn) (as salt: hydrochloride) [Example 5],> 275 °C
7,"O=c1[nH]c2ccc3c(c2[nH]1)OC(CNCCCc1c[nH]c2ccccc12)CO3 (stereo not drawn) (as salt: hydrochloride) [Example 8, 8-{[3-(1H-indol-3-yl)-propylamino]-methyl}-1,3,7,8-tetrahydro-6,9-dioxa-1,3-diaza-cyclopenta[a]naphthalen-2-one]",200 to 207 °C (dec.)
